# Reference: publication PMC11509018, “Evaluation of the Role of Tanshinone I in an In Vitro System of Charcot-Marie-Tooth Disease Type 2N” (International Journal of Molecular Sciences, 2024)
# Target: T1, AlaRS R326W binding to Nrp1 (Homo sapiens, UniProt P49588, R326W)
# T1 construct: expressed in transfected cells
# T1 sequence (P49588 1-968 R326W): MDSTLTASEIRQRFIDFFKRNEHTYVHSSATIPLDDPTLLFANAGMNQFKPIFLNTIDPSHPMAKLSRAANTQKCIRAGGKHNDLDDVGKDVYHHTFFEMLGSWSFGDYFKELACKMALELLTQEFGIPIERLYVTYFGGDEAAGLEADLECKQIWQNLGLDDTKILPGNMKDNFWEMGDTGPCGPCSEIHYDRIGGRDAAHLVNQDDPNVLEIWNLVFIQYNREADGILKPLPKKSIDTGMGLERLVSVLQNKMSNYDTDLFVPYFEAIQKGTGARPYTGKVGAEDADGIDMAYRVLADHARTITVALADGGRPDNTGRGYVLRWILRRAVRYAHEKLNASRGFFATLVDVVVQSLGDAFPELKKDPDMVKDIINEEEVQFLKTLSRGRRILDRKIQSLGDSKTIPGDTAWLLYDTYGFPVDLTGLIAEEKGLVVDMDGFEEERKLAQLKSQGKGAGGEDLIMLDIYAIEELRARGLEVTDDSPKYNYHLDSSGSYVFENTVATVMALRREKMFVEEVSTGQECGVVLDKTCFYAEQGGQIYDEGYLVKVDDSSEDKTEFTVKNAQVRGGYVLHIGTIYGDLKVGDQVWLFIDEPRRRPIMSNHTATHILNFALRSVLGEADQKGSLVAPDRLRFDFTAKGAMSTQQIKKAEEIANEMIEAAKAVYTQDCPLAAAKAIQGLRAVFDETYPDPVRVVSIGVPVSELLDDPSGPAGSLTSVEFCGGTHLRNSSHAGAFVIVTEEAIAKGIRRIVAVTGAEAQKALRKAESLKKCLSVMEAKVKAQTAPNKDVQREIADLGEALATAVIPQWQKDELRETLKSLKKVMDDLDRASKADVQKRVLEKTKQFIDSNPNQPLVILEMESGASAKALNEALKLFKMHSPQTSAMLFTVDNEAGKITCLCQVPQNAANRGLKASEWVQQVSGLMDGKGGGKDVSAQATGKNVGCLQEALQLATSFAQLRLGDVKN
# Assay: Co-IP of HA-AlaRS mutant with Nrp1 in transfected cells
# Assay type: cell-based
# Conditions: 20 µM Tanshinone I for 24 h, ImageJ, average of three repeats
structure (smiles),measurement,value
Cc1coc2c1C(=O)C(=O)c1c-2ccc2c(C)cccc12 [Tanshinone I],"Mean density band (R326W), relative quantification of AlaRS mutant immunoprecipitated",0.50
